The results in this text go back to patent US10259810B2, “N-sulfonylated pyrazolo[3,4-b]pyridin-6-carboxamides and method of use” (AbbVie S.à.r.l., priority 2015, dated 2019).

Experiment [1] deals with T1, ΔF508-CFTR (Homo sapiens, UniProt P13569, DEL508-508).
T1 construct: host or cells: CFBE41o-, doxycycline-inducible
The experiment can be described thus: CFTR cell surface levels using HRP-tagged ΔF508-CFTR expressing CFBE cells, in the presence of a co-corrector. The class given is cell-based. Particulars: HRP-tagged ΔF508-CFTR CFBE cells, in the presence of 3 μM co-corrector; for EC50: read-out: EC50. Put shortly: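 Chemiluminescent read-out of surface HRP (15 min, dark) after PBS washes. Activity is normalized as 100×(sample−DMSO)/(3 μM co-corrector alone−DMSO).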

Experiment [2] deals with T1, ΔF508-CFTR. The experiment can be described thus: CFTR cell surface levels using HRP-tagged ΔF508-CFTR expressing CFBE cells, intrinsic corrector capacity. The class given is cell-based. Also on record: % Activation: concentration or dose not given beside the values. Particulars: HRP-tagged ΔF508-CFTR expressing CFBE41o- cells, compound alone (intrinsic corrector capacity), 20 hours at 33° C.; for EC50: read-out: EC50. Put shortly: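 Read-out: chemiluminescent HRP activity of ECL4-HRP-tagged ΔF508-CFTR at the cell surface, 15 min substrate in dark. Normalized as 100×(sample−DMSO)/(positive control−DMSO).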

Each structure is given as a SMILES string.

T1 sequence (P13569 with tags, fused parts or gaps DEL508-508): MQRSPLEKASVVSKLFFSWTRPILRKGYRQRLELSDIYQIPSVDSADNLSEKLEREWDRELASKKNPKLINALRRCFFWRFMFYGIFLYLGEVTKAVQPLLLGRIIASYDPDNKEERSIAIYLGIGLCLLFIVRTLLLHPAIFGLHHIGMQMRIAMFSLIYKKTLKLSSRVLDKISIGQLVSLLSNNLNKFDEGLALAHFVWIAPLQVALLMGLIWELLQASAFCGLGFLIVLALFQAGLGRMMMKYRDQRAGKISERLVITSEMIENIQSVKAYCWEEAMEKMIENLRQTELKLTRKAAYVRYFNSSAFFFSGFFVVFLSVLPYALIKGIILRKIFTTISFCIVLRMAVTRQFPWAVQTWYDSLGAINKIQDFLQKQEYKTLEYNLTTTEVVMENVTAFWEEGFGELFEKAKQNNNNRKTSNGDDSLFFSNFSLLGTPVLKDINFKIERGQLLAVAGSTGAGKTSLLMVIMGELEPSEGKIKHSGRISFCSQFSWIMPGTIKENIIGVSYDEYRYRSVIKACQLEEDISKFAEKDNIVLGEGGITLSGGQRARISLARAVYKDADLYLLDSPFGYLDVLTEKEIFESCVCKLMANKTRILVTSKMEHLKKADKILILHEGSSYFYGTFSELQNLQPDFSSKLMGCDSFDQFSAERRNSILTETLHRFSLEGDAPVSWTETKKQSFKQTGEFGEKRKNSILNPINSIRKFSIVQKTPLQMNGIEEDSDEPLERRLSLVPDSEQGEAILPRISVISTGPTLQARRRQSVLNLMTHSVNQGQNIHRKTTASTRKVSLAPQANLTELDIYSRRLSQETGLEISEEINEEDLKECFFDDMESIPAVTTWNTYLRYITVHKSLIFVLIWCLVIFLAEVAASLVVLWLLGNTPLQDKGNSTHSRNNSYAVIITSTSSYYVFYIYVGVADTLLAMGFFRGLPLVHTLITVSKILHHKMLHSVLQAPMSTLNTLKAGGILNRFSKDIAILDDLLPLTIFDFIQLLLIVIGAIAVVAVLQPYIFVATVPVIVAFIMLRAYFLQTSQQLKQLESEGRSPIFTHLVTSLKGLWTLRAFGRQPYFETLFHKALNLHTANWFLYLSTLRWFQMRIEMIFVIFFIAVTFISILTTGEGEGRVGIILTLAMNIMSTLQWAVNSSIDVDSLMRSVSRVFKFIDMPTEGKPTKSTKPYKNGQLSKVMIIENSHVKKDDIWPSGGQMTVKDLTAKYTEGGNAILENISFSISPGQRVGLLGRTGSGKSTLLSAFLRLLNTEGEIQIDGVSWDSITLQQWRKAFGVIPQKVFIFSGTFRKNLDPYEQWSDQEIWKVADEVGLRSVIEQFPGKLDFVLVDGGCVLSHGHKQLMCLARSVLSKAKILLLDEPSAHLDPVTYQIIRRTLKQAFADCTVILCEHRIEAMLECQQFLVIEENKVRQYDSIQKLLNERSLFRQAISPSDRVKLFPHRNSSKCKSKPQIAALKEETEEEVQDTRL

For orientation: EC50 means the concentration that produces a half-maximal response. Take `CCN(C)S(=O)(=O)NC(=O)c1cc(N2CCC(N3CCOCC3)CC2)c2c(C3CCC3)nn(-c3ccc(F)cc3)c2n1` [Compound 483, 3-cyclobutyl-N-[ethyl(methyl)sulfamoyl]-1-(4-fluorophenyl)-4-[4-(morpholin-4-yl)piperidin-1-yl]-1H-pyrazolo[3,4-b]pyridine-6-carboxamide]: at ΔF508-CFTR [1], the “% Activation” value came to 438.2% and the concentration for a half-maximal effect (EC50) turned out to be 56.1 nM. For the same compound, at ΔF508-CFTR [2], the “% Activation” value is listed as 212.7% and the concentration for a half-maximal effect (EC50) is 84.9 nM.

On to `O=C(NS(=O)(=O)N1CCCC1)c1cc(N2CCC(N3CCOCC3)CC2)c2c(C3CCC3)nn(-c3ccc(F)cc3)c2n1` [Compound 485, 3-cyclobutyl-1-(4-fluorophenyl)-4-[4-(morpholin-4-yl)piperidin-1-yl]-N-(pyrrolidine-1-sulfonyl)-1H-pyrazolo[3,4-b]pyridine-6-carboxamide], for which, on ΔF508-CFTR [1], the “% Activation” value was determined as 399.1% and the EC50 was 90.2 nM. Further, at ΔF508-CFTR [2], the “% Activation” value was 218.55% and the half-maximal effective concentration (EC50) is 155 nM.

For `O=C(NS(=O)(=O)CC(F)(F)F)c1cc(N2CCC(N3CCOCC3)CC2)c2c(C3CCC3)nn(-c3ccc(F)cc3)c2n1` [Compound 486, 3-cyclobutyl-1-(4-fluorophenyl)-4-[4-(morpholin-4-yl)piperidin-1-yl]-N-(2,2,2-trifluoroethanesulfonyl)-1H-pyrazolo[3,4-b]pyridine-6-carboxamide], on ΔF508-CFTR [1], the “% Activation” value is 569% and the EC50 amounted to 181 nM. In addition, on ΔF508-CFTR [2], the “% Activation” value worked out at 332.5% and the EC50 was 467 nM.

For the compound `COCCS(=O)(=O)NC(=O)c1cc(N2CCC(N3CCCCC3)CC2)c2c(C3CCC3)nn(-c3ccc(F)cc3)c2n1` [Compound 488, 4-([1,4'-bipiperidin]-1'-yl)-3-cyclobutyl-1-(4-fluorophenyl)-N-(2-methoxyethanesulfonyl)-1H-pyrazolo[3,4-b]pyridine-6-carboxamide], on ΔF508-CFTR [1], the “% Activation” value was determined as 488.15% and the EC50 came out at 683 nM. In addition, at ΔF508-CFTR [2], the “% Activation” value was found to be 246.55% and the EC50 was found to be 655 nM.

As to `CC(C)c1nn(-c2ccnc(N3CCOCC3)c2)c2nc(C(=O)NS(=O)(=O)N(C)C)cc(OCC3CCOCC3)c12` [Compound 489, N-(dimethylsulfamoyl)-1-[2-(morpholin-4-yl)pyridin-4-yl]-4-[(oxan-4-yl)methoxy]-3-(propan-2-yl)-1H-pyrazolo[3,4-b]pyridine-6-carboxamide], at ΔF508-CFTR [1], the “% Activation” value is 280% and the EC50 came out at 241 nM. Moreover, at ΔF508-CFTR [2], the “% Activation” value was found to be 99.6% and the EC50 worked out at 141 nM.

Consider `CS(=O)(=O)NC(=O)c1cc(N2CCC(N3CCOCC3)CC2)c2c(C3CCC3)nn(-c3ccnc(C4CCOCC4)c3)c2n1` [Compound 490, 3-cyclobutyl-N-(methanesulfonyl)-4-[4-(morpholin-4-yl)piperidin-1-yl]-1-[2-(oxan-4-yl)pyridin-4-yl]-1H-pyrazolo[3,4-b]pyridine-6-carboxamide], for which the entries for the “% Activation” value on ΔF508-CFTR [1] and at ΔF508-CFTR [2] were 303.9% and 139.7%, respectively. Further, the EC50 on ΔF508-CFTR [1] was determined as 693 nM; at ΔF508-CFTR [2], 1550 nM.

Take `O=C(NS(=O)(=O)CCO)c1cc(N2CCC(CCN3CCOCC3)CC2)c2c(C3CCC3)nn(-c3ccc(F)cc3)c2n1` [Compound 491, 3-cyclobutyl-1-(4-fluorophenyl)-N-(2-hydroxyethanesulfonyl)-4-{4-[2-(morpholin-4-yl)ethyl]piperidin-1-yl}-1H-pyrazolo[3,4-b]pyridine-6-carboxamide]: at ΔF508-CFTR [1], the “% Activation” value was found to be 490.9% and the EC50 amounted to 488 nM. Moreover, at ΔF508-CFTR [2], the “% Activation” value was determined as 204.5% and the concentration for a half-maximal effect (EC50) came to 248 nM.

For the compound `COC(=O)N1CCN(C2CCN(c3cc(C(=O)NS(=O)(=O)N(C)C)nc4c3c(C3CCC3)nn4-c3ccc(F)cc3)CC2)CC1` [Compound 492, methyl 4-(1-{3-cyclobutyl-6-[(dimethylsulfamoyl)carbamoyl]-1-(4-fluorophenyl)-1H-pyrazolo[3,4-b]pyridin-4-yl}piperidin-4-yl)piperazine-1-carboxylate], at ΔF508-CFTR [1], the “% Activation” value worked out at 483.4% and the EC50 stood at 43.9 nM. For the same compound, at ΔF508-CFTR [2], the “% Activation” value is 311% and the concentration for a half-maximal effect (EC50) was 79.9 nM.

Consider `CCS(=O)(=O)NC(=O)c1cc(N2CCC(CN3CCOCC3)CC2)c2c(C3CCC3)nn(-c3ccc(F)cc3)c2n1` [Compound 494, 3-cyclobutyl-N-(ethanesulfonyl)-1-(4-fluorophenyl)-4-{4-[(morpholin-4-yl)methyl]piperidin-1-yl}-1H-pyrazolo[3,4-b]pyridine-6-carboxamide], for which the “% Activation” value amounted to 551.8% at ΔF508-CFTR [1] and 315.4% at ΔF508-CFTR [2]. Further, the results for the half-maximal effective concentration (EC50) on ΔF508-CFTR [1] and on ΔF508-CFTR [2] were 37.1 nM and 110 nM, respectively.

In the case of `CCOC(=O)N1CCC(c2cc(C(=O)NS(C)(=O)=O)nc3c2c(C(C)C)nn3-c2ccc(F)cc2)CC1` [Compound 496, ethyl 4-[1-(4-fluorophenyl)-6-[(methanesulfonyl)carbamoyl]-3-(propan-2-yl)-1H-pyrazolo[3,4-b]pyridin-4-yl]piperidine-1-carboxylate], the results for the “% Activation” value at ΔF508-CFTR [1] and at ΔF508-CFTR [2] were 374.65% and 199.9%, respectively. Moreover, the EC50 on ΔF508-CFTR [1] amounted to 243 nM; at ΔF508-CFTR [2], 282 nM.

Turning to `CCOC(=O)N1CCC(c2cc(C(=O)NS(=O)(=O)N(C)C)nc3c2c(C(C)C)nn3-c2ccc(F)cc2)CC1` [Compound 497, ethyl 4-{6-[(dimethylsulfamoyl)carbamoyl]-1-(4-fluorophenyl)-3-(propan-2-yl)-1H-pyrazolo[3,4-b]pyridin-4-yl}piperidine-1-carboxylate], the “% Activation” value at ΔF508-CFTR [1] worked out at 378.25%; at ΔF508-CFTR [2] it was 195.7%. Also, the EC50 was 288 nM on ΔF508-CFTR [1] and 410 nM at ΔF508-CFTR [2].

Take `Cc1cccc(-n2nc(C3CCC3)c3c(N4CCC(N5CCOCC5)CC4)cc(C(=O)NS(=O)(=O)N(C)C)nc32)c1` [Compound 498, 3-cyclobutyl-N-(dimethylsulfamoyl)-1-(3-methylphenyl)-4-[4-(morpholin-4-yl)piperidin-1-yl]-1H-pyrazolo[3,4-b]pyridine-6-carboxamide]: the “% Activation” value was determined as 456.3% on ΔF508-CFTR [1] and 288.1% at ΔF508-CFTR [2]. The EC50 on ΔF508-CFTR [1] amounted to 95.1 nM; at ΔF508-CFTR [2], 144 nM.

As to `COc1cccc(-n2nc(C3CCC3)c3c(N4CCC(N5CCOCC5)CC4)cc(C(=O)NS(=O)(=O)N(C)C)nc32)c1` [Compound 499, 3-cyclobutyl-N-(dimethylsulfamoyl)-1-(3-methoxyphenyl)-4-[4-(morpholin-4-yl)piperidin-1-yl]-1H-pyrazolo[3,4-b]pyridine-6-carboxamide], at ΔF508-CFTR [1], the “% Activation” value was 439.6% and the EC50 was 71.2 nM. For the same compound, on ΔF508-CFTR [2], the “% Activation” value came out at 287.5% and the EC50 is 186 nM.

On to `CN(C)S(=O)(=O)NC(=O)c1cc(N2CCC(N3CCOCC3)CC2)c2c(C3CCC3)nn(-c3ccc(C(F)(F)F)cc3)c2n1` [Compound 500, 3-cyclobutyl-N-(dimethylsulfamoyl)-4-[4-(morpholin-4-yl)piperidin-1-yl]-1-[4-(trifluoromethyl)phenyl]-1H-pyrazolo[3,4-b]pyridine-6-carboxamide], for which the “% Activation” value was found to be 330.05% at ΔF508-CFTR [1] and 137.5% at ΔF508-CFTR [2]. The concentration giving a half-maximal response (EC50) stood at 84.2 nM on ΔF508-CFTR [1] and 173 nM at ΔF508-CFTR [2].

With `CCOCC1(F)CCN(c2cc(C(=O)NS(C)(=O)=O)nc3c2c(C2CCC2)nn3-c2ccccc2)CC1` [Compound 501, 3-cyclobutyl-4-[4-(ethoxymethyl)-4-fluoropiperidin-1-yl]-N-(methanesulfonyl)-1-phenyl-1H-pyrazolo[3,4-b]pyridine-6-carboxamide], the “% Activation” value worked out at 403.55% on ΔF508-CFTR [1] and 188.7% at ΔF508-CFTR [2]. In addition, the 50% effective concentration (EC50) is 124 nM at ΔF508-CFTR [1] and 211 nM on ΔF508-CFTR [2].

On to `COCCOCC1(F)CCN(c2cc(C(=O)NS(C)(=O)=O)nc3c2c(C2CCC2)nn3-c2ccccc2)CC1` [Compound 502, 3-cyclobutyl-4-{4-fluoro-4-[(2-methoxyethoxy)methyl]piperidin-1-yl}-N-(methanesulfonyl)-1-phenyl-1H-pyrazolo[3,4-b]pyridine-6-carboxamide], for which, on ΔF508-CFTR [1], the “% Activation” value came to 383.8% and the concentration for a half-maximal effect (EC50) worked out at 177 nM. On ΔF508-CFTR [2], the “% Activation” value is listed as 214.2% and the EC50 is 345 nM.

With `COCCOCC1(F)CCCN(c2cc(C(=O)NS(C)(=O)=O)nc3c2c(C2CCC2)nn3-c2ccccc2)C1` (stereo not drawn) [Compound 503, 3-cyclobutyl-4-{3-fluoro-3-[(2-methoxyethoxy)methyl]piperidin-1-yl}-N-(methanesulfonyl)-1-phenyl-1H-pyrazolo[3,4-b]pyridine-6-carboxamide], the “% Activation” value at ΔF508-CFTR [1] stood at 433.2%; at ΔF508-CFTR [2] it was 203.4%. The EC50 at ΔF508-CFTR [1] was 405 nM; on ΔF508-CFTR [2], 419 nM.

`COCC1(F)CCN(c2cc(C(=O)NS(C)(=O)=O)nc3c2c(C2CCC2)nn3-c2ccccc2)CC1` [Compound 504, 3-cyclobutyl-4-[4-fluoro-4-(methoxymethyl)piperidin-1-yl]-N-(methanesulfonyl)-1-phenyl-1H-pyrazolo[3,4-b]pyridine-6-carboxamide]: on ΔF508-CFTR [1], the “% Activation” value was found to be 404.8% and the concentration for a half-maximal effect (EC50) amounted to 210 nM. For the same compound, at ΔF508-CFTR [2], the “% Activation” value is 206.4% and the 50% effective concentration (EC50) is 301 nM.
